Reference: paper PMC6934184, “Selective DNA-PKcs inhibition extends the therapeutic index of localized radiotherapy and chemotherapy” (The Journal of Clinical Investigation, 2019)

Target: T1, SRMS (Srm) (Homo sapiens, UniProt Q9H3Y6)
T1 construct: purchased Thermo Fisher Scientific (Life Technologies) SelectScreen
Test: SelectScreen Z'LYTE
Format: biochemical
Procedure, shortened: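 SelectScreen broad panel; activity (Z'LYTE, Adapta) plus binding formats. ATP: Km app for CSF1R Z'LYTE; 10 for CAMK1 Adapta. Readout = % per kinase.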

T1 sequence (Q9H3Y6 whole entry): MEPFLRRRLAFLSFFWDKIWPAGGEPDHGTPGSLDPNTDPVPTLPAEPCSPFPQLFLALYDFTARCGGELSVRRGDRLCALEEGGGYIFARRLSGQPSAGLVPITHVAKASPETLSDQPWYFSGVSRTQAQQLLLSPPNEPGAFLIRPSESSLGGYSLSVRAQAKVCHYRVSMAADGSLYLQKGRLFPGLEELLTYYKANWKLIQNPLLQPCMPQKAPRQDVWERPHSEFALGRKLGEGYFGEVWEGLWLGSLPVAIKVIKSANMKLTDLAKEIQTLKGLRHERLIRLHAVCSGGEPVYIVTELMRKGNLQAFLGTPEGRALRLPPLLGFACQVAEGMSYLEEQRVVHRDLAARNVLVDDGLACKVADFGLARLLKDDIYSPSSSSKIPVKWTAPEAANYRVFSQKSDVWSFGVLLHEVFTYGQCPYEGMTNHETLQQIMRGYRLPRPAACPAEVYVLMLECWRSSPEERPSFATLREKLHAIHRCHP

CN(C(=O)CN1CCOCC1)c1ccc2sc3c(-c4cccc5c(=O)cc(N6CC7CCC(C6)O7)oc45)cccc3c2c1 [NU5455] gave an inhibition at 1 µM of 7.5%.
